Reference: patent publication US6399590B2, “Phosphoglycolipid and methods for its use” (Corixa Corporation, priority 1998, dated 2002)

Test system: Adult mongrel dogs, left anterior descending coronary artery (LAD) occlusion/reperfusion
Test: Infarct size in the dog, 60 min LAD occlusion and 3 h reperfusion
Assay type: in vivo
Conditions: AG 30 mg/kg alone, 60 min before occlusion; mean ± SEM
Description: Adult mongrel dogs of either sex, weighing 19.0-30.0 kg were fasted overnight, anaesthetized with intravenous sodium barbital (200 mg/kg) and sodium pentobarbital (15 mg/kg), and ventilated with room air supplemented with 100% oxygen at an end expiratory pressure of 5-7 cm H2O to prevent atelectasis. Arterial blood pH PO2 and PCO2 were monitored at selected intervals by an automatic blood gas system and maintained within a normal physiological range (pH 7.35-7.45, PO2 10.6-16.0 kPa, PCO2 3,3-4.7 kPa) by adjusting the respiratory rate and oxygen flow and by an infusion of 1.5% sodium bicarbonate when necessary. Body temperature was maintained at 38±1° C. by using a heating pad.
A double pressure-transducer-tipped catheter was inserted into the aorta and left ventricle via the left carotid artery for measurements of aortic and left ventricular pressure. Left ventricular dP/dt was determined by electronic differentiation of the left ventricular pressure pulse.
A left thoracotomy was performed at the fifth intercostal space. The lung was retracted, the pericardium incised, and the heart suspended in a cradle. A 10-15 mm segment of the left anterior descending coronary artery (LAD) was dissected from surrounding tissue. […]
Regional myocardial blood flow was measured by the radioactive microsphere technique. […]

N=C(N)NN [AG, aminoguanidine, reference compound]
IS/AAR(%) (infarct size / area at risk): 22.4 ± 2.8%
